Results published in ChEMBL document CHEMBL4725375, “Total synthesis and a systematic structure-activity relationship study of WAP-8294A2” (2020).
In brackets after ≈: the same amount, converted by molar mass.

What was measured:
Staphylococcus aureus [1] = experiment: Antibacterial activity against Staphylococcus aureus ATCC 29213 by CLSI M07-A8 protocol based microdilution method; assay type: functional
Staphylococcus aureus [2] = experiment: Antibacterial activity against methicillin-resistant Staphylococcus aureus SA86 by CLSI M07-A8 protocol based microdilution method; assay type: functional

| SMILES | MIC (Staphylococcus aureus [1]) [µg/mL] | MIC (Staphylococcus aureus [2]) [µg/mL] |
| --- | --- | --- |
| CC(C)CCC[C@@H]1CC(=O)N[C@@H](CO)C(=O)N[C@H](CC(N)=O)C(=O)N[C@@H](CO)C(=O)NCC(=O)N(C)[C@H](Cc2ccccc2)C(=O)N[C@@H](CC(C)C)C(=O)N[C@H](Cc2c[nH]cn2)C(=O)N[C@@H](CCC(=O)O)C(=O)N[C@H](CC(N)=O)C(=O)N[C@H](Cc2c[nH]c3ccccc23)C(=O)N[C@H](CCCN)C(=O)N(C)[C@@H](C(C)C)C(=O)O1 | 2 (≈ 1.27 µM) | 2 (≈ 1.27 µM) |
| CC(C)CCC[C@@H]1CC(=O)N[C@@H](CO)C(=O)N[C@H](CC(N)=O)C(=O)N[C@@H](CO)C(=O)NCC(=O)N(C)[C@H](Cc2ccccc2)C(=O)N[C@@H](CC(C)C)C(=O)N[C@H](CCCN)C(=O)N[C@@H](CCC(=O)O)C(=O)N[C@H](CC(N)=O)C(=O)N[C@H](Cc2c[nH]c3ccccc23)C(=O)N[C@H](Cc2c[nH]cn2)C(=O)N(C)[C@@H](C(C)C)C(=O)O1 | 2 (≈ 1.27 µM) | 2 (≈ 1.27 µM) |
| CC(C)CCC[C@@H]1CC(=O)N[C@@H](CO)C(=O)N[C@H](CC(N)=O)C(=O)N[C@@H](CO)C(=O)NCC(=O)N(C)[C@H](Cc2ccccc2)C(=O)N[C@@H](CC(C)C)C(=O)N[C@H](CCCN)C(=O)N[C@@H](CCC(=O)O)C(=O)N[C@H](CC(N)=O)C(=O)N[C@H](Cc2ccc(O)cc2)C(=O)N[C@H](CCCN)C(=O)N(C)[C@@H](C(C)C)C(=O)O1 | ≥ 32 | ≥ 32 |
| CC(C)CCC[C@@H]1CC(=O)N[C@@H](CO)C(=O)N[C@H](CC(N)=O)C(=O)N[C@@H](CO)C(=O)NCC(=O)N(C)[C@H](Cc2ccccc2)C(=O)N[C@@H](CC(C)C)C(=O)N[C@H](CCCN)C(=O)N[C@@H](CCC(=O)O)C(=O)N[C@H](CC(N)=O)C(=O)N[C@H](Cc2c[nH]c3ccccc23)C(=O)N[C@H](CCCNC(=N)N)C(=O)N(C)[C@@H](C(C)C)C(=O)O1 | 1 (≈ 0.629 µM) | 2 (≈ 1.26 µM) |
| CC(C)CCC[C@@H]1CC(=O)N[C@@H](CO)C(=O)N[C@H](CC(N)=O)C(=O)N[C@@H](CO)C(=O)NCC(=O)N(C)[C@H](Cc2ccccc2)C(=O)N[C@@H](CC(C)C)C(=O)N[C@H](CCCNC(=N)N)C(=O)N[C@@H](CCC(=O)O)C(=O)N[C@H](CC(N)=O)C(=O)N[C@H](Cc2c[nH]c3ccccc23)C(=O)N[C@H](CCCN)C(=O)N(C)[C@@H](C(C)C)C(=O)O1 | 1 (≈ 0.629 µM) | 2 (≈ 1.26 µM) |
| CC(C)CCC[C@@H]1CC(=O)N[C@@H](CO)C(=O)N[C@H](CC(N)=O)C(=O)N[C@@H](CO)C(=O)NCC(=O)N(C)[C@H](Cc2ccccc2)C(=O)N[C@@H](CC(C)C)C(=O)N[C@H](CCCN)C(=O)N[C@@H](CCC(=O)O)C(=O)N[C@H](CC(N)=O)C(=O)N[C@H](Cc2ccccc2)C(=O)N[C@H](CCCN)C(=O)N(C)[C@@H](C(C)C)C(=O)O1 | ≥ 32 | ≥ 32 |
